In ChEMBL document CHEMBL5038653, “A Brain-Penetrant and Bioavailable Pyrazolopiperazine BACE1 Inhibitor Elicits Sustained Reduction of Amyloid β In Vivo” (ACS Med Chem Lett, 2022):
Converted amounts (≈) assume the structure as drawn. The source made the active and inactive calls. No cut-off for these calls is given here.

Columns and labels:
[1] = biological target: Beta-secretase 1 (Homo sapiens, UniProt P56817); assay: Inhibition of BACE1 (1 to 454 residues) (unknown origin) using APP harboring Swedish Lys/Met mutant-derived peptide as substrate by FRET assay
[2] = biological target: Voltage-gated inwardly rectifying potassium channel KCNH2 (Homo sapiens, UniProt Q12809); assay: Inhibition of hERG expressed in HEK293 cells at -80 mV holding potential by automated patch-clamp method; type: toxicity, cell-based
[3] = test system: MDR1; assay: Efflux ratio of apparent permeability in dog MDCK-MDR1 cells; type: ADME, cell-based, Canis lupus familiaris
[4] = biological target: hERG (KCNH2) (Homo sapiens, UniProt Q12809); assay: Inhibition of hERG expressed in HEK293 cells at 3 uM at -80 mV holding potential by automated patch-clamp method; type: toxicity, cell-based; conditions: HEK293 cells expressing hERG
[5] = biological target: T1, Cytochrome P450 3A4 (Homo sapiens, UniProt P08684); assay: Inhibition of human CYP3A4 by fluorescence plate reader analysis; type: ADME
[6] = biological target: T1, Cytochrome P450 3A4; assay: Inhibition of human CYP3A4 using midazolam as substrate by fluorescence plate reader analysis; type: ADME; conditions: for inhibition (INH): human
[7] = Ratio of apparent permeability across apical to basolateral side in the presence of P-gp inhibitor elacridar to the absence of P-gp inhibitor elacridar in dog MDCK-MDR1 cells at 5 uM incubated for 120 mins; type: ADME, cell-based, Canis lupus familiaris; conditions: 2 h
[8] = Dissociation constant, pKa of the compound by fast UV-spectrometric titration analysis; type: physicochemical
[9] = Metabolic stability in human liver microsomes assessed as metabolite formation after 15 mins in presence of NADPH by LC-MS analysis; type: ADME, Microsome; conditions: 0.25 h
[10] = Metabolic stability in mouse liver microsomes assessed as metabolite formation after 15 mins in presence of NADPH by LC-MS analysis; type: ADME, Microsome; conditions: 0.25 h
[11] = test system: Canis lupus familiaris; assay: In vivo inhibition of BACE1 in Beagle dog assessed as reduction of amyloid beta (1 to 42 residues) levels in CSF at 2.5 mg/kg, po measured after 24 hrs by electrochemiluminescence assay; type: functional, organism-based
[12] = Free drug concentration in rat brain measured after 5 hrs by HPLC-MS/MS method; type: ADME, tissue-based
[13] = Free drug concentration in human plasma measured after 4.5 hrs by HPLC-MS/MS method; type: ADME, cell-free
[14] = Free drug concentration in mouse plasma measured after 4.5 hrs by HPLC-MS/MS method; type: ADME, cell-free
[15] = Free drug concentration in dog plasma measured after 4.5 hrs by HPLC-MS/MS method; type: ADME, cell-free, Canis lupus familiaris
[16] = biological target: T1, Cytochrome P450 3A4; assay: Inhibition of human CYP3A4 using testosterone as substrate by fluorescence plate reader analysis; type: ADME
[17] = biological target: T2, Cytochrome P450 1A2 (Homo sapiens, UniProt P05177); assay: Inhibition of human CYP1A2 by fluorescence plate reader analysis; type: ADME
T2 sequence (P05177 whole entry): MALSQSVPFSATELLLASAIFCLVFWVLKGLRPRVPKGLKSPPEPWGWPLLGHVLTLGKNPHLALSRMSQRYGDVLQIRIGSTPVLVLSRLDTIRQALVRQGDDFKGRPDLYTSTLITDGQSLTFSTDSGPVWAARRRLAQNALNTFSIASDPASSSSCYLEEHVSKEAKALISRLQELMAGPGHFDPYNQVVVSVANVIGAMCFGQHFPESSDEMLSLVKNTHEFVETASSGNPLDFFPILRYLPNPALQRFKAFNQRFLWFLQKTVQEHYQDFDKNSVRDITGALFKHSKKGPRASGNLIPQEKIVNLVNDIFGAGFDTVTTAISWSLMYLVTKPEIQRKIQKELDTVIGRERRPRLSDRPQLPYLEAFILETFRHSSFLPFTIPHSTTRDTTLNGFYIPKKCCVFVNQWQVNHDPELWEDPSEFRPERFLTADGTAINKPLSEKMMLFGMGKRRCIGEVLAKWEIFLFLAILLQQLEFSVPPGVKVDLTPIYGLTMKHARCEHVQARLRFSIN

[18] = biological target: T3, Cytochrome P450 2C8 (Homo sapiens, UniProt P10632); assay: Inhibition of human CYP2C8 by fluorescence plate reader analysis; type: ADME
T3 sequence (P10632 whole entry): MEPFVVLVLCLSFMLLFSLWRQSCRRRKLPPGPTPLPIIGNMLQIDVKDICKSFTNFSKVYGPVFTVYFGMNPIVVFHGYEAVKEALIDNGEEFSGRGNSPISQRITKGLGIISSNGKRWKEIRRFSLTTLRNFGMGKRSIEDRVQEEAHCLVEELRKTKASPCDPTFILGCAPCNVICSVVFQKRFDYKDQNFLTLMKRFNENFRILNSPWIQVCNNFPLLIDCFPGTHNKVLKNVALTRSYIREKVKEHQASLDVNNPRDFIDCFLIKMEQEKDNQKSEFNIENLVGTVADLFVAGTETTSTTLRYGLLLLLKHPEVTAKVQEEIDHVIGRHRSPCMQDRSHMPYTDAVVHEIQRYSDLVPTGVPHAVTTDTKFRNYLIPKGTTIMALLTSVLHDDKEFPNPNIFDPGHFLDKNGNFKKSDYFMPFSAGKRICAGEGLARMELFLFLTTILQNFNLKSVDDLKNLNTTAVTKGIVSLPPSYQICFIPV

[19] = biological target: Cytochrome P450 2C9 (Homo sapiens, UniProt P11712); assay: Inhibition of human CYP2C9 by fluorescence plate reader analysis; type: ADME
[20] = biological target: Cytochrome P450 2C19 (Homo sapiens, UniProt P33261); assay: Inhibition of human CYP2C19 by fluorescence plate reader analysis; type: ADME
[21] = biological target: T1, Cytochrome P450 3A4; assay: Time dependent inhibition of human CYP3A4 using testosterone as substrate by fluorescence plate reader analysis; type: ADME
[22] = Half life in Beagle dog at 2.5 mg/kg, po; type: ADME, organism-based, Canis lupus familiaris; conditions: in vivo
[23] = In vivo inhibition of BACE1 in Beagle dog assessed as reduction of amyloid beta (1 to 42 residues) levels in CSF administered orally by electrochemiluminescence assay; type: functional, organism-based, Canis lupus familiaris; conditions: Canis lupus familiaris, Beagle
[24] = Total plasma concentration in Beagle dog at 2.5 mg/kg, po; type: ADME, organism-based, Canis lupus familiaris; conditions: in vivo

T1 sequence (P08684 whole entry): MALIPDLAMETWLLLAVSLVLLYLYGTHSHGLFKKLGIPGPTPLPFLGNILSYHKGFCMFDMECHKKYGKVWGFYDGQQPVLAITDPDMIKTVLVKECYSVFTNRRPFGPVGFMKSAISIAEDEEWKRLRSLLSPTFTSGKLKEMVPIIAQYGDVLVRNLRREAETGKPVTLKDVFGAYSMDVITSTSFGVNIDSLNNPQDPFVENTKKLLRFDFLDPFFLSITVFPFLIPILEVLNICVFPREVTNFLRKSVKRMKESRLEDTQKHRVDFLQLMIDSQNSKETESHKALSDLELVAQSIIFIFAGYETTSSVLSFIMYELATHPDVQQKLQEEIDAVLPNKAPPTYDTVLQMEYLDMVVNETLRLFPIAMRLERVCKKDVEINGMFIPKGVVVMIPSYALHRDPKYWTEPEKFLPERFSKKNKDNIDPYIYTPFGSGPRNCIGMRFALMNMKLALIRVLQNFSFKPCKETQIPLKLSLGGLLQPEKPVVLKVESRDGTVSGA
Chain of Voltage-gated inwardly rectifying potassium channel KCNH2 (Q12809 whole entry): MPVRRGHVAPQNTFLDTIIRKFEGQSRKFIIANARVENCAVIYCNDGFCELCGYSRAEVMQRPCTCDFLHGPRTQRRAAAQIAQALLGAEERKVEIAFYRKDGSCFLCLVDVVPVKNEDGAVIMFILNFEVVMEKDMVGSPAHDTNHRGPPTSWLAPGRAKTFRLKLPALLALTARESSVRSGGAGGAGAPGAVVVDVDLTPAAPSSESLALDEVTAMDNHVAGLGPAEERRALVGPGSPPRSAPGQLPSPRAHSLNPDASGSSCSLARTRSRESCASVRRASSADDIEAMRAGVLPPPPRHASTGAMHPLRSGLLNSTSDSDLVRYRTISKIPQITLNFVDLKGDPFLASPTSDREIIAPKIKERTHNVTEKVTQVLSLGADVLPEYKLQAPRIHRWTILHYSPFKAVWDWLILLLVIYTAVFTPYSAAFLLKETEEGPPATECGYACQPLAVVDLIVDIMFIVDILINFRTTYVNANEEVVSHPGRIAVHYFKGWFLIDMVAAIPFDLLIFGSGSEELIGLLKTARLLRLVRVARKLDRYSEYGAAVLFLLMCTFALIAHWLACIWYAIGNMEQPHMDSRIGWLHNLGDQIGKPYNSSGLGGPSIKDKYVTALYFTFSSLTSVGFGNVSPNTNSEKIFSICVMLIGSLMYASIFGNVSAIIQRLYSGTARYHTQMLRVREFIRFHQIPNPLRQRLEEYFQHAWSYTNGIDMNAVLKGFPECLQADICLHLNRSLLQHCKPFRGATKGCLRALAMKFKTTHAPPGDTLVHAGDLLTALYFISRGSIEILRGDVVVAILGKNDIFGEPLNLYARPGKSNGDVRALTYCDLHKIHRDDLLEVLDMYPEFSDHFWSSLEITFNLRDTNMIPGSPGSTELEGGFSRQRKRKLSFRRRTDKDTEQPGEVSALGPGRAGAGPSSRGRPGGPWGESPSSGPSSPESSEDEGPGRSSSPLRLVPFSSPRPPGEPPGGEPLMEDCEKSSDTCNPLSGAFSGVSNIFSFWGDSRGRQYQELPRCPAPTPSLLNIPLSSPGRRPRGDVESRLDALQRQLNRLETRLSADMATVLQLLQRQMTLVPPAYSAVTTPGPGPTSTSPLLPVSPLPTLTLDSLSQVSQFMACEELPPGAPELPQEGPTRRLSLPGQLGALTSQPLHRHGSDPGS
Chain of Beta-secretase 1 (P56817 whole entry, the tested form may be a part): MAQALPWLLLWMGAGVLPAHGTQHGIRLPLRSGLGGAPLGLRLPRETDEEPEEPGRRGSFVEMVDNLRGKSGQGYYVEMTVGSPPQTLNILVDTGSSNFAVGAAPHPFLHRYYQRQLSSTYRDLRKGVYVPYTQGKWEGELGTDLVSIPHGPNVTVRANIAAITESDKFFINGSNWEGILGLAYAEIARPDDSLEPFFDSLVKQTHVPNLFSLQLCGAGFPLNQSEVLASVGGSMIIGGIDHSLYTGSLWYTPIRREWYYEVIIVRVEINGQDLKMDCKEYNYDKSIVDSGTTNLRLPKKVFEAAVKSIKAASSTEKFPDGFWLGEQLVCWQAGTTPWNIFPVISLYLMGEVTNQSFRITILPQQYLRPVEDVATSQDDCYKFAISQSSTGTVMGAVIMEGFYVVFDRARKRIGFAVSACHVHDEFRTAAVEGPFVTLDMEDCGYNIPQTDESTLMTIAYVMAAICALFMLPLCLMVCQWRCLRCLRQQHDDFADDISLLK
Chain of hERG (KCNH2) (Q12809 whole entry): as the sequence (Q12809 whole entry) above
Chain of Cytochrome P450 2C19 (P33261 whole entry): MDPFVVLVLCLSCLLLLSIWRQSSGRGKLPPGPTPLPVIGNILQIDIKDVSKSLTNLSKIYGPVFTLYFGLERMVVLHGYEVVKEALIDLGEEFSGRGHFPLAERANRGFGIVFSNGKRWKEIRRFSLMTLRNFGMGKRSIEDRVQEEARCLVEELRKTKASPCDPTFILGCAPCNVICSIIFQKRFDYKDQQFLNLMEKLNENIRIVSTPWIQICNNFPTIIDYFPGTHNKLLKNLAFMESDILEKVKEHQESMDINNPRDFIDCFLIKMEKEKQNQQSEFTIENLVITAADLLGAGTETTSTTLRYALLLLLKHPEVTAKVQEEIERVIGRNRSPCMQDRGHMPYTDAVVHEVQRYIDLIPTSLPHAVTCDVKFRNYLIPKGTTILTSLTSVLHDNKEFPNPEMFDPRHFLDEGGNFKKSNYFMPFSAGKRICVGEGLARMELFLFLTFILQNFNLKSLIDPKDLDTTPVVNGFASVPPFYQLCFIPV
Chain of Cytochrome P450 2C9 (P11712 whole entry): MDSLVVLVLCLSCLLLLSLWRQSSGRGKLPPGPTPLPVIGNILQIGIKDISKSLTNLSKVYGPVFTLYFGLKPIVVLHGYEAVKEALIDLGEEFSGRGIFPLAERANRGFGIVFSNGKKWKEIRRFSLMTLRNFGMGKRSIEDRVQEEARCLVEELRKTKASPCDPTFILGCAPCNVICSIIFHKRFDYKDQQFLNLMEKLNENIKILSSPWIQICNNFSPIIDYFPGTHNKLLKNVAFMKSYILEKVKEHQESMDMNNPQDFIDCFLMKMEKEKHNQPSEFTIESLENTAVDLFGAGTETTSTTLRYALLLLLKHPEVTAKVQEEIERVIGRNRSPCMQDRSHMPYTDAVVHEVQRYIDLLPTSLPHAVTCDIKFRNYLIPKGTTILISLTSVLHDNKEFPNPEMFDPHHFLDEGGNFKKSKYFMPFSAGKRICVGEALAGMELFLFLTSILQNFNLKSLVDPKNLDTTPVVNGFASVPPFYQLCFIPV

Row | SMILES | IC50 [1] [µM] | efflux ratio [3] | IC50 [5] [µM] | IC50 [2] [µM] | other results
1 | C[C@@]1(c2cc(NC(=O)c3cnc(OCF)cn3)ccc2F)Cn2nc(C#N)cc2C(N)=N1 | 0.0023 | 8.5 |  | > 10 | 
2 | C[C@@]1(c2cc(NC(=O)c3ccc(F)cn3)ccc2F)Cn2c(C#N)cnc2C(N)=N1 | 0.0115 |  | 4.4 | > 10 | inhibition (INH) [6]: Active
3 | CC(C)(C)OC(=O)Nc1ccc(F)c([C@]2(C)Cn3c(C#N)cnc3C(N)=N2)c1 |  |  |  |  | inhibition (INH) [6]: Active
4 | Cc1nc(C(=O)Nc2ccc(F)c([C@]3(C)Cn4nc(C#N)cc4C(N)=N3)c2)co1 | 0.0045 | 19.4 |  | > 10 | 
5 | C[C@@]1(c2cc(NC(=O)c3ccc(C#N)cn3)ccc2F)Cn2cc(C#N)nc2C(N)=N1 | 0.013 |  |  | 6.6 | Ratio [7]: 16.8; pKa [8]: 7; Drug metabolism [9]: 3%; Drug metabolism [10]: 95%
6 | C[C@@]1(c2cc(NC(=O)c3ccc(C#N)cn3)ccc2F)Cn2ccnc2C(N)=N1 |  |  |  |  | inhibition at 3 µM [4]: 76%
7 | COc1cnc(C(=O)Nc2ccc(F)c([C@]3(C)Cn4c(C#N)cnc4C(N)=N3)c2)cn1 | 0.0055 |  | 3.1 | > 10 | 
8 | C[C@@]1(c2cc(NC(=O)c3ccc(Cl)cn3)ccc2F)Cn2c(C#N)cnc2C(N)=N1 | 0.0026 |  | 0.9 | > 10 | inhibition (INH) [6]: Active
9 | C[C@@]1(c2cc(NC(=O)c3ccc(C#N)cn3)ccc2F)Cn2c(C#N)cnc2C(N)=N1 | 0.0037 |  | 6.7 | > 10 | inhibition [11]: inactive; Ratio [7]: 9.3; pKa [8]: 7.2; Drug metabolism [9]: 34%; Drug metabolism [10]: 81%; fraction unbound at 5 h [12]: 0.15; fraction unbound at 4.5 h [13]: 0.2; fraction unbound at 4.5 h [14]: 0.06; fraction unbound at 4.5 h [15]: 0.32; IC50 [16]: 1.5 µM; IC50 [6]: 6.7 µM; IC50 [17]: > 10 µM; IC50 [18]: > 10 µM; IC50 [19]: > 10 µM; IC50 [20]: > 10 µM; IC50 [21]: 0.27 µM; half-life [22]: 8 h; EC50 [23]: 0.03 µg/mL (≈ 0.0724 µM); concentration [24]: 72 nM

Continued, in another order:

Row | IC50 [1] [µM] | efflux ratio [3] | IC50 [5] [µM] | SMILES | IC50 [2] [µM] | other results
10 | 0.0014 | 7 |  | C[C@@]1(c2cc(NC(=O)c3ccc(OC(F)F)cn3)ccc2F)Cn2nc(C#N)cc2C(N)=N1 | 6.6 | 
11 | 0.0028 | 7 |  | C[C@@]1(c2cc(NC(=O)c3ccc(F)cn3)ccc2F)Cn2nc(C#N)cc2C(N)=N1 | 3.3 | 
12 | 0.0017 | 15.2 |  | C[C@@]1(c2cc(NC(=O)c3ccc(C#N)cn3)ccc2F)Cn2nc(C#N)cc2C(N)=N1 | 4.6 | inhibition at 3 µM [4]: 71%
13 | 0.0037 | 11.5 |  | C[C@@]1(c2cc(NC(=O)c3cnc(C(F)F)cn3)ccc2F)Cn2nc(C#N)cc2C(N)=N1 | > 10 | 
